Entries after “also recorded” stand apart in the source; their conditions may differ. Like-named read-outs stand apart in the source and are kept apart here. Ends that are not written are not given here.
Key:
[1] = tested on: methionine N^α -acetyltransferase from S. cerevisiae; type: biochemical, Saccharomyces cerevisiae; details: for effect of divalent cation on M-N^α AT activity: 1 mM; for effect of ion or salt on M-N^α AT activity: concentration not given; for Enzyme Activity (%): 5 min room temperature, 50 mM HEPES pH 7.4, 1 mM DTT, substrate PAI (N=3)
Experimental: (§1) N^α -acetyltransferase activity was determined as previously described [Lee et al., J. Biol. Chem. 263:14948-14955 (1988)]. Aliquots of the lysate or chromatographic fractions were added to 1.5 ml Eppendorf tubes containing a reaction mixture of 50 mM HEPES, pH 7.4, 150 mM KCl, 1 mM DTT, 25 μM [^3 H] acetyl coenzyme A (0.5 μCi) and 50 μM synthetic peptide with an adjusted final volume of 100 μl. The assay mixture was incubated at 30° C. for 30 min. The reaction was stopped by adding 17 μl of 0.5M acetic acid and chilled in an ice bath. The reaction samples were filtered through SP membrane discs (Cuno) (previously pre-swollen in 0.5M acetic acid), and then washed three times with 1 ml of 0.5M acetic acid on a Millipore 1225 sampling manifold. The partially dried membranes were placed in scintillation cocktail and counted with a Beckman LS 3801 scintillation counter.
Yeast methionine acetyltransferase was incubated in the presence of various divalent cations at a room temperature for 5 min in 50 mM HEPES, pH 7.4 containing 1 mM DTT. The enzyme activity was determined under standard assay conditions using PAI (N=3), as described above.

[2] = tested on: methionine N^α -acetyltransferase from S. cerevisiae; assay: Effect of protein modification reagents on enzyme activity; type: biochemical, Saccharomyces cerevisiae; details: for Enzyme Activity (%): 30° C. 15 min, then dialyzed, substrate PAI (N=3)
Experimental: as §1, with “counter. One unit of activity was defined as the amount of enzyme able to transfer 1 pmol of [^3 H] acetyl group from [^3 H] acetyl coenzyme A to synthetic peptide per min under standard enzyme assay conditions defined above.” for “counter.”
In order to determine the possible catalytic role for different types of amino acid residues in the enzyme, various chemical modifications were carried out (Table 10). Yeast methionine acetyltransferase was incubated with each reagent at 30° C. for 15 min, dialyzed against 50 mM HEPES, pH 7.4, 150 mM, 1 mM DTT at 4° C. for 3 to 4 hr. The enzyme activity was determined under standard assay conditions using PAI (N=3), assayed as described above.

[3] = biological target: T1, AAA1 N^α -acetyltransferase (N^α -AT) (Saccharomyces cerevisiae, UniProt P07347+P12945); assay: Relative activity of N^α -AT for N^α -acetylation of synthetic peptides; type: biochemical
T1 sequence (P12945 2-854 limits assumed): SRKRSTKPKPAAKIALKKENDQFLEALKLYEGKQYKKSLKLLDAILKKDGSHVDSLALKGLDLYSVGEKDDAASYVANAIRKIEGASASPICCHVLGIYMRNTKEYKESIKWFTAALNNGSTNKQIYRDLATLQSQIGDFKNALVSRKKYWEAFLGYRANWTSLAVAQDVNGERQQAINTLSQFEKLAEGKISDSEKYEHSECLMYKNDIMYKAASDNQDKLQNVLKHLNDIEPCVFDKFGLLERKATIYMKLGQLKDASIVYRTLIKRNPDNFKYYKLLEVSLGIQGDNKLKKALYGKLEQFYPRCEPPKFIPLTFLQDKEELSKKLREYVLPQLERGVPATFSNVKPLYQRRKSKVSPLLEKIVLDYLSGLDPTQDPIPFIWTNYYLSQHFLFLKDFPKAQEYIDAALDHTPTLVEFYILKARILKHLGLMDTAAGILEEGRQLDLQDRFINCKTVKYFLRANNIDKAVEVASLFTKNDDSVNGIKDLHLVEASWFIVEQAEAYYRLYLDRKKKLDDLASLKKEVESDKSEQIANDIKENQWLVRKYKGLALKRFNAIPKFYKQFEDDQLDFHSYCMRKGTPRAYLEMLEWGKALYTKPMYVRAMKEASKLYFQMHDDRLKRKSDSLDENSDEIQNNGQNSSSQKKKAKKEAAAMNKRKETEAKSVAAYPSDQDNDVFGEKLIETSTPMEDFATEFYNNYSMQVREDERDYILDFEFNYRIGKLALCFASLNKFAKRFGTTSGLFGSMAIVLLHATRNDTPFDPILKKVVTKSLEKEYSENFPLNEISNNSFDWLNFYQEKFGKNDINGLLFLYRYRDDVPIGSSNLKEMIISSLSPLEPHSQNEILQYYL
T1 sequence (P07347 1-238): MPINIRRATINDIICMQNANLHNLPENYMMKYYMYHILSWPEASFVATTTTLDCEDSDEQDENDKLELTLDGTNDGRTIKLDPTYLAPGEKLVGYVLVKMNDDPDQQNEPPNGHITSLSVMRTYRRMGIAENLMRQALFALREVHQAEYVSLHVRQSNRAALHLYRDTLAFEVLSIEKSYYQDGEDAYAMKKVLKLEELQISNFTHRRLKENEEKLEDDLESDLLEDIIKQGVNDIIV
Experimental: as §1, with “-acetylt[…]” for “-acetyltransferase activity”, “counter. One unit of activity was defined as the amount of enzyme able to transfer 1 pmol of [^3 H] acetyl group from [^3 H] acetyl coenzyme A to synthetic peptide per min under standard enzyme assay conditions defined above.” for “counter.”
(§2) In order to compare the relative specificity and activity of the methionine N^α -acetylt[…] (M-N^α -AT) of the present invention with the specificity and activity of the AAA1 N^α -acetyltransferase (N^α -AT) of Lee, F.-J. S., et al., J. Bacteriol. 171, (1989), U.S. Patent Application of John A. Smith, and Fang-Jen S. Lee, filed Oct. 25, 1989, entitled "ISOLATION OF STRAINS OF SAC[…] ALTERED N^α -ACETYLT[…]" (which references have been incorporated herein by reference) synthetic peptides were prepared. These peptides were assessed for their ability to serve as substrates for the two enzymes. In Table 6, the effect of the amino terminal amino acid on activity is investigated; in Table 7, the effect of the penultimate amino terminal amino acid on activity is investigated.

[4] = tested on: methionine N^α -acetyltransferase (M-N^α -AT); assay: Relative activity of M-N^α -AT for N^α -acetylation of synthetic peptides; type: biochemical, Saccharomyces cerevisiae; parameters: tested at 50 µM; details: Table 7, influence of the penultimate amino terminal residue
Experimental: as §1, with “-acetylt[…]” for “-acetyltransferase activity”, “counter. One unit of activity was defined as the amount of enzyme able to transfer 1 pmol of [^3 H] acetyl group from [^3 H] acetyl coenzyme A to synthetic peptide per min under standard enzyme assay conditions defined above.” for “counter.”
as §2

[5] = Table 6, influence of the amino terminal residue
[6] = Table 7, influence of the penultimate amino terminal residue

Compound: [Ca+2].[Cl-].[Cl-] [CaCl2]
- effect of divalent cation on M-N^α AT activity [1]: had no effect
- effect of ion or salt on M-N^α AT activity [1]: did not affect enzyme activity
- Enzyme Activity (%) ([1]; salt 1 mM): 102%

Compound: [Cl][Cd][Cl] [CdCl2]
- effect of ion or salt on M-N^α AT activity ([1]; listed as Cd^2+): pronounced and concentration-dependent inhibition; also recorded: also inhibited
- Enzyme Activity (%) ([1]; salt 0.01 mM): 103%
- Enzyme Activity (%) ([1]; salt 0.1 mM): 72%
- Enzyme Activity (%) ([1]; salt 1 mM): 0%

Compound: [Cl-].[Cl-].[Co+2] [CoCl2]
- effect of ion or salt on M-N^α AT activity [1]: pronounced and concentration-dependent inhibition
- Enzyme Activity (%) ([1]; salt 0.01 mM): 106%
- Enzyme Activity (%) ([1]; salt 0.1 mM): 95%
- Enzyme Activity (%) ([1]; salt 1 mM): 38%

Compound: CCOC(=O)OC(=O)OCC [DEPC, diethyl pyrocarbonate]
- effect of reagent on M-N^α AT activity ([2]; concentration not given): nearly complete inactivation
- Enzyme Activity (%) ([2]; reagent 0.05 mM): 59%
- Enzyme Activity (%) ([2]; reagent 0.5 mM): 0%

Compound: O=S(=O)([O-])[O-].[Fe+2] [FeSO4]
- effect of ion or salt on M-N^α AT activity [1]: pronounced and concentration-dependent inhibition
- Enzyme Activity (%) ([1]; salt 0.01 mM): 108%
- Enzyme Activity (%) ([1]; salt 0.1 mM): 93%
- Enzyme Activity (%) ([1]; salt 1 mM): 40%

Compound: C[S+](C)Cc1cc([N+](=O)[O-])ccc1O.[Br-] [HNBS(CH3)2 -Br, dimethyl-(2-hydroxy-5-nitrobenzyl)sulfonium bromide]
- effect of reagent on M-N^α AT activity ([2]; concentration not given): partially inactivated the enzyme
- Enzyme Activity (%) ([2]; reagent 1.0 mM): 93%
- Enzyme Activity (%) ([2]; reagent 10.0 mM): 62%

Compound: [Cl-].[Cl-].[Mg+2] [MgCl2]
- effect of ion or salt on M-N^α AT activity [1]: did not affect enzyme activity
- Enzyme Activity (%) ([1]; salt 0.1 mM): 105%
- Enzyme Activity (%) ([1]; salt 1 mM): 98%

Compound: O=S(=O)([O-])[O-].[Mg+2] [MgSO4]
- effect of ion or salt on M-N^α AT activity [1]: did not affect enzyme activity
- Enzyme Activity (%) ([1]; salt 0.1 mM): 102%
- Enzyme Activity (%) ([1]; salt 1 mM): 97%

Compound: [Mg+2] [Mg^2+]
- effect of divalent cation on M-N^α AT activity [1]: had no effect

Compound: [Cl][Mn][Cl] [MnCl2]
- effect of divalent cation on M-N^α AT activity [1]: had no effect
- effect of ion or salt on M-N^α AT activity [1]: did not affect enzyme activity
- Enzyme Activity (%) ([1]; salt 0.1 mM): 103%
- Enzyme Activity (%) ([1]; salt 1 mM): 98%

Compound: CC(=O)n1ccnc1 [N-acetylimidazole]
- effect of reagent on M-N^α AT activity ([2]; concentration not given): without effect
- Enzyme Activity (%) ([2]; reagent 1.0 mM): 100%
- Enzyme Activity (%) ([2]; reagent 10.0 mM): 93%

Compound: O=C1CCC(=O)N1Br [NBS, N-bromosuccinimide]
- effect of reagent on M-N^α AT activity ([2]; 0.5 mM): partially inactivated the enzyme
- effect of reagent on M-N^α AT activity ([2]; 5 mM): completely inactivated the enzyme
- Enzyme Activity (%) ([2]; reagent 0.5 mM): 30%
- Enzyme Activity (%) ([2]; reagent 5.0 mM): 0%

Compound: NO [hydroxylamine]
- effect of reagent on M-N^α AT activity ([2]; concentration not given): slowly inactivated the enzyme
- original enzyme activity recovered after diethyl pyrocarbonate inactivation ([2]; incubation 6 hr at room temperature with […] hydroxylamine, 250000 µM): ~ 50%

Compound: FIPETQKGVIFYESHGKLEYKDIP (FIPETQKGVIFYESHGKLEYKDIP)
- Activity (%) (mean activity ± S.D.) N^a -AT [3, 5]: 9 ± 2%

Compound: HIPETQKGVIFYESHGKLEYKDIP (HIPETQKGVIFYESHGKLEYKDIP; also: tritium label)
- Activity (%) (mean activity ± S.D.) N^a -AT [3, 5]: 19 ± 2%

Compound: MIPETQKGVIFYESHGKLEYKDIP (MIPETQKGVIFYESHGKLEYKDIP)
- Activity (%) (mean activity ± S.D.) N^a -AT [3, 5]: 15 ± 2%

Compound: PIPETQKGVIFYESHGKLEYKDIP (PIPETQKGVIFYESHGKLEYKDIP)
- Activity (%) (mean activity ± S.D.) N^a -AT [3, 5]: 70 ± 4%

Compound: SAPETQKGVIFYESHGKLEYKDIP (SAPETQKGVIFYESHGKLEYKDIP)
- Activity (%) (mean activity ± S.D.) M-N^a -AT [4]: 0%
- Activity (%) (mean activity ± S.D.) N^a -AT [3, 6]: 168 ± 8%

Compound: SCPETQKGVIFYESHGKLEYKDIP (SCPETQKGVIFYESHGKLEYKDIP)
- Activity (%) (mean activity ± S.D.) M-N^a -AT [4]: 0%
- Activity (%) (mean activity ± S.D.) N^a -AT [3, 6]: 136 ± 7%

Compound: SDPETQKGVIFYESHGKLEYKDIP (SDPETQKGVIFYESHGKLEYKDIP)
- Activity (%) (mean activity ± S.D.) M-N^a -AT [4]: 0%
- Activity (%) (mean activity ± S.D.) N^a -AT [3, 6]: 171 ± 9%

Compound: TIPETQKGVIFYESHGKLEYKDIP (TIPETQKGVIFYESHGKLEYKDIP)
- Activity (%) (mean activity ± S.D.) N^a -AT [3, 5]: 103 ± 5%

Compound: VIPETQKGVIFYESHGKLEYKDIP (VIPETQKGVIFYESHGKLEYKDIP)
- Activity (%) (mean activity ± S.D.) N^a -AT [3, 5]: 69 ± 4%

Compound: YIPETQKGVIFYESHGKLEYKDIP (YIPETQKGVIFYESHGKLEYKDIP)
- Activity (%) (mean activity ± S.D.) N^a -AT [3, 5]: 20 ± 2%

— US5223421A, “Identification of methionine Nα-acetyltransferase” (The General Hospital Corporation, priority 1990, dated 1993)
